The values below come from PubChem BioAssay (NCI).

What all share (assay): NCI-60 cell line screen, 48 h
The subject of experiment [1] is XF 498 CNS.
Experiment [2] has as its system M19-MEL melanoma.
Experiment [3] relates to BT-549 breast.
Experiment [4] concerns HS 578T breast.
The test system of experiment [5] is T-47D breast.
The test system of experiment [6] is NCI/ADR-RES ovarian.
The subject of experiment [7] is MDA-N.
In experiment [8] the test system is MDA-MB-231 breast.
The test system of experiment [9] is RXF-631 renal.
The subject of experiment [10] is MCF7 breast.

SMILES strings stand for the structures. “And” between values parts separate entries of the source, which are not always exact repeats. Identical values can stand only once.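 In this assay, cells in 96-well plates receive the compound at five concentrations for 48 hours. Endpoints are linearly interpolated between the surrounding concentrations. Abbreviation: GI50, concentration required for 50% inhibition of growth. TGI denotes the concentration required for complete inhibition of growth.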

As for `CCN(CC)CCNC(=O)c1nn(C)c(=S)[nH]c1=S`, the TGI in experiment [1] and in experiment [2] was greater than 100 µM throughout.
`COC(=O)C(=O)C(C#N)c1ccc(CC#N)cc1` (stereo not given): the TGI in experiment [1] and in experiment [2] was greater than 100 µM each time.
For `Cc1cc(C)nc(NS(=O)(=O)c2ccc(Nc3c4ccc(Cl)cc4nc4c(C(=O)Nc5ccc(S(=O)(=O)N=C(N)N)cc5)cccc34)cc2)n1`, the TGI in experiment [1] and in [2] was greater than 100 µM each time.
For the compound `O=C1NC(=S)NC(=O)C1=Cc1cccc2cc3ccccc3cc12`, the TGI was 3.33 µM in experiment [3]; greater than 25.6 µM in experiment [4]; 3.86 µM in experiment [5]; 5.89 µM in experiment [6]; 4.69 µM in experiment [7]; 3.69 µM in experiment [8].
Regarding `CC(=O)/C(=C\C1=CCCO1)C(=O)Nc1ccccc1C`, the TGI in experiment [1], in [2] and in experiment [9] was greater than 100 µM in each case.
`COc1ccc2cc3[n+](cc2c1OC)CCc1cc(O)c(O)cc1-3`: the TGI in experiment [1], in [2] and in experiment [9] was greater than 100 µM each time.
Turning to `COc1ccc(C(=O)OC2C=COC(C)C2OC(=O)c2ccc(OC)cc2)cc1` (stereo not given), the TGI in experiment [1] was greater than 61.8 µM; in experiment [2] it was greater than 100 µM; in [9], 81.3 µM.
As to `CC[O-].CC[O-].O=C1C(c2ccccc2)=C([O-])c2ccccc21.O=C1C(c2ccccc2)=C([O-])c2ccccc21.[Ti+4]`, in experiment [2], the GI50 was greater than 100 µM and the TGI was greater than 100 µM.
On to `COC(=O)C12CC3CC(C1)CC(C(=O)OC)(C3)C2`, for which the TGI in [1] and in experiment [2] was greater than 100 µM in each case.
With `Cc1ccc(NC(=O)CCC/C(CC(=O)c2ccc(Br)cc2)=N/NC(=O)CC#N)cc1`, the TGI in experiment [2] was greater than 100 µM.
Still for that read-out and setting: the value for `CCOC(=O)C1=C(Nc2ccc(Cl)cc2Cl)OC/C1=N\NS(=O)(=O)c1ccc(C)cc1` was greater than 100 µM.
For `COC(=O)C12CC(c3ccccc31)C1C(=O)OC(=O)C12` (stereo not given), the TGI in experiment [1] and in [2] was greater than 100 µM in each case.
For the compound `O=C(Nc1ccc(F)cc1)C(=O)C(C1OC(=O)c2ccccc21)[N+](=O)[O-]` (stereo not given), the TGI in [1] and in experiment [2] was greater than 100 µM each time.
For `C[C@]12CC[C@H](OCCC#N)CC1=CC[C@@H]1C2CC[C@]2(C)/C(=N/OCCC#N)CCC12` (stereo not given in full), the TGI in [1] was 48.9 µM; in experiment [2], greater than 100 µM.
As to `Cc1ccc(/C=C/C(=O)c2sc(-c3cccnc3)nc2C)cc1`, the TGI in [2] and in experiment [9] was greater than 100 µM each time.
Turning to `CCOC(=O)NC(=O)c1cn(CCCOC(=O)CCCCCCCCCCC(=O)OCCCn2cc(C(=O)NC(=O)OCC)c(=O)n(C)c2=O)c(=O)n(C)c1=O`, the TGI in experiment [1] and in experiment [2] was greater than 100 µM throughout.
On to `O=c1[nH]ccc2nc(N3CCC(O)CC3)nc(Nc3cccc(C(F)(F)F)c3)c12`, for which the GI50 was 1.6 µM in experiment [3]; 1.93 µM in experiment [4]; 3.11 µM in experiment [5]; 2.37 µM in [6]; 2.84 µM in experiment [10]; 12.2 µM in experiment [8]. Further, the TGI in experiment [3] was 4.34 µM; in [4] it was 14.1 µM; in experiment [5], 26.1 µM; in experiment [6], 7.33 µM; in [10] it was 12.7 µM; in [8], greater than 100 µM.
`CN(C)C1CCN(C(=O)c2ccc(NC(=O)Nc3ccc(-c4nc(N5CCOCC5)nc(N5CCOCC5)n4)cc3)cc2)CC1`: the GI50 in [3] was 0.018 µM and 0.0199 µM and 0.0434 µM; in experiment [4], < 0.01 µM and 0.00879 µM and 0.025 µM; in experiment [5], < 0.01 µM and 0.00386 µM and 0.0056 µM; in [6] it was 29.4 µM and 4.87 µM; in experiment [10], 0.00665 µM and 0.00604 µM; in [8], < 0.0115 µM and 0.0128 µM and 0.0168 µM. Besides, the TGI in [3] was 0.239 µM and 0.206 µM and 0.635 µM; in experiment [4], 0.061 µM and 0.0697 µM and 0.343 µM; in experiment [5], 0.0345 µM and 0.0176 µM and 0.0884 µM; in experiment [6], greater than 100 µM; in experiment [10], 2.5 µM and > 10 µM; in experiment [8] it was 1.71 µM and 2.5 µM and 0.286 µM.
Turning to `O=C(O)CC12C3C4C5C3C1C5C42` (stereo not given), the TGI in experiment [1] and in experiment [2] was greater than 100 µM each time.
On to `CN(C)CC/C(=N\Nc1ccccc1)c1ccccc1`, for which the TGI amounted to 23.4 µM in experiment [1] and 77.9 µM in experiment [2].
As to `COc1ccc2c(CN3CCC[C@H]3C(=O)O)cc3cc4c(cc3c2c1)OCO4`, the GI50 in experiment [3] is 15.7 µM; in experiment [4], 11.6 µM; in experiment [5] it was 20 µM; in [6] it was 23.8 µM; in experiment [10] it was 13.5 µM; in experiment [8] it was 23.5 µM. Also, the TGI in [3] is 43.3 µM; in [4], 48 µM; in [5], greater than 100 µM; in [6], greater than 100 µM; in experiment [10] it was 62.3 µM; in [8] it was greater than 100 µM.
Regarding `Cc1cc2cc3c(C)cc(=O)oc3c(C)c2o1`, the TGI in experiment [3], in experiment [4], in [5], in experiment [6], in experiment [7] and in experiment [10] was greater than 100 µM each time. The TGI in [8] is greater than 100 µM.
Turning to `C=C[C@H]1CCC/C=C/[C@@H]2C[C@H](O)C[C@H]2[C@H](O)/C=C/C(=O)O1`, the GI50 in experiment [3] was 0.05 µM; in [4] it was less than 0.01 µM; in [5], 0.0285 µM; in experiment [6], 0.0361 µM; in experiment [10], 0.021 µM; in [8], 0.0201 µM. Also, the TGI in experiment [3] is greater than 100 µM; in experiment [4], greater than 100 µM; in experiment [5] it was 0.0973 µM; in [6] it was greater than 100 µM; in experiment [10], 0.0532 µM; in experiment [8], 0.0403 µM.
On to `C=C(C)CN(CC#N)CC(=C)C`, for which the TGI in [3], in experiment [4], in experiment [5], in [6], in [7] and in [10] was greater than 100 µM each time. In [8], the TGI is greater than 100 µM.
As for `O=c1ccnc2c1ccc1[nH]cccc12`, the TGI in experiment [2] and in [9] was greater than 100 µM in each case.
